Test results: ChEMBL document CHEMBL1156052, “Discovery of 1-[4-(3-chlorophenylamino)-1-methyl-1H-pyrrolo[3,2-c]pyridin-7-yl]-1-morpholin-4-ylmethanone (GSK554418A), a brain penetrant 5-azaindole CB2 agonist for the treatment of chronic pain” (J Med Chem, 2009)
In brackets after ≈: the same amount, converted by molar mass. Activity calls are given as the source filed them. No cut-off for these calls is given here.

What was measured:
Cannabinoid receptor 1 [1] = biological target: T1, Cannabinoid receptor 1 (Homo sapiens, UniProt P21554); experiment: Agonist activity at human recombinant cannabinoid CB1 receptor expressed in MMY23 Saccharomyces cerevisiae assessed as degradation of FDGlu to fluorescein after 24 hrs by spectrofluorimetry; format: functional
T1 sequence (P21554 whole entry): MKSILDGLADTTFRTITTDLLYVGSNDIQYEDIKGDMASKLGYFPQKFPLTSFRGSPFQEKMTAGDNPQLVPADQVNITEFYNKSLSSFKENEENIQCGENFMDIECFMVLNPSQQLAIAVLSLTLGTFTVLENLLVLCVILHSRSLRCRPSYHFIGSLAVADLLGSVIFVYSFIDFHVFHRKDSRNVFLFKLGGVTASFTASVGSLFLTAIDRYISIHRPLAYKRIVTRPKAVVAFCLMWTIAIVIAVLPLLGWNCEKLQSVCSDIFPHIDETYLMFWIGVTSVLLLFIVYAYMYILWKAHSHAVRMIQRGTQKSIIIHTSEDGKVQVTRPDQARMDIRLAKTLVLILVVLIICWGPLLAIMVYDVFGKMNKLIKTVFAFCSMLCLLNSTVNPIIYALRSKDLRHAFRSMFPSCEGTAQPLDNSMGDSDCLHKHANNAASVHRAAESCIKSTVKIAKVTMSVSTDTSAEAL

Homo sapiens = organism: Homo sapiens; experiment: Selectivity ratio of EC50 for human recombinant cannabinoid CB1 receptor to EC50 for human recombinant cannabinoid CB2 receptor
Cannabinoid receptor 2 [2] = biological target: T2, Cannabinoid receptor 2 (Homo sapiens, UniProt P34972); experiment: Agonist activity at human recombinant cannabinoid CB2 receptor expressed in MMY23 Saccharomyces cerevisiae assessed as degradation of FDGlu to fluorescein after 24 hrs by spectrofluorimetry; format: functional
T2 sequence (P34972 whole entry): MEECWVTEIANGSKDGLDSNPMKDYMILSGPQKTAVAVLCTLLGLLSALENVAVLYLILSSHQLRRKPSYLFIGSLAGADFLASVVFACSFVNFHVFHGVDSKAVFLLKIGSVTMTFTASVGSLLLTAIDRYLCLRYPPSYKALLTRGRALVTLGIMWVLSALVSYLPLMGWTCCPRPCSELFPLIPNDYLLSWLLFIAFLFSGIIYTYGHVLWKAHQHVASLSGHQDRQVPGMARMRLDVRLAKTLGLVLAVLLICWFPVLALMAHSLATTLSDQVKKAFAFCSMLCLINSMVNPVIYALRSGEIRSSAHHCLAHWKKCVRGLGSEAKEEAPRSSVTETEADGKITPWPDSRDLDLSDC

Cannabinoid receptor 2 [3] = biological target: T2, Cannabinoid receptor 2; experiment: Agonist activity at human recombinant cannabinoid CB2 receptor expressed in MMY23 Saccharomyces cerevisiae assessed as degradation of FDGlu to fluorescein after 24 hrs by spectrofluorimetry relative to HU210; format: functional
Cannabinoid receptor 1 [4] = biological target: T1, Cannabinoid receptor 1; experiment: Agonist activity at human recombinant cannabinoid CB1 receptor expressed in MMY23 Saccharomyces cerevisiae assessed as degradation of FDGlu to fluorescein at 30 uM after 24 hrs by spectrofluorimetry; format: functional
Rattus norvegicus [5] = experiment: Analgesic activity in rat joint model of chronic pain at 5 mg/kg, po BID for 5 days; format: functional, organism-based; parameters: dose 5 mg/kg
[6] = Efflux ratio of apparent permeability […] side of MDR1-expressing MDCK2 cells after 60 mins by liquid scintillation counting; format: ADME, cell-based, Canis lupus familiaris; details: dog, mdck-ii, 1 h
[7] = biological target: Cannabinoid receptor 1 (Rattus norvegicus) (UniProt P20272); experiment: Agonist activity at cannabinoid CB1 receptor at rat cerebellum by GTPgammaS binding assay relative to HU210; format: functional
Rattus norvegicus [8] = experiment: Induction of hypothermia in rat at 130 mg/kg, po after 1 to 3 hrs; format: organism-based; parameters: dose 130 mg/kg, route oral; details: in vivo
[9] = biological target: Muscarinic acetylcholine receptor M4 (Homo sapiens) (UniProt P08173); experiment: Binding affinity to human muscarinic M4 receptor at 1 uM
[10] = biological target: Type-1 angiotensin II receptor (Homo sapiens) (UniProt P30556); experiment: Binding affinity to human AT1 receptor at 1 uM
[11] = Binding affinity to GABA receptor at 1 uM
[12] = biological target: Galanin receptor type 2 (Homo sapiens) (UniProt O43603); experiment: Binding affinity to human GAL2 receptor at 1 uM
[13] = biological target: Cholecystokinin receptor type A (Homo sapiens) (UniProt P32238); experiment: Binding affinity to human CCKA receptor at 1 uM
Chain of Cholecystokinin receptor type A (Homo sapiens) (P32238 whole entry): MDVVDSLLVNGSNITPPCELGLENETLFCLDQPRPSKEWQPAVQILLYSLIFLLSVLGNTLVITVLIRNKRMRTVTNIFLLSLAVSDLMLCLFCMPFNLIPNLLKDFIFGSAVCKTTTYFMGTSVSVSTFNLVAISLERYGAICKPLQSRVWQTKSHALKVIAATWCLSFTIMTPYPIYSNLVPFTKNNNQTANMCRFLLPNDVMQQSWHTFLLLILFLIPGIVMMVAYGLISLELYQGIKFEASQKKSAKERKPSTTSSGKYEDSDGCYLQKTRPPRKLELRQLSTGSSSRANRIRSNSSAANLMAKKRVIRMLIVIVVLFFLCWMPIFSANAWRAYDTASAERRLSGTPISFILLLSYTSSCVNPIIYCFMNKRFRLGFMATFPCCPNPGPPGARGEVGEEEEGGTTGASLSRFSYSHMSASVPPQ

[14] = biological target: Adenosine receptor A3 (Homo sapiens) (UniProt P0DMS8); experiment: Binding affinity to human adenosine A3 receptor at 1 uM
Cannabinoid receptor 1 [15] = biological target: Cannabinoid receptor 1 (Rattus norvegicus, UniProt P20272); experiment: Agonist activity at cannabinoid CB1 receptor at rat cerebellum by GTPgammaS binding assay; format: functional, tissue-based
[16] = biological target: Melatonin receptor type 1A (Homo sapiens) (UniProt P48039); experiment: Binding affinity to human ML1 receptor at 1 uM
[17] = Drug level in rat blood at 130 mg/kg, po after 1 hr; format: ADME, organism-based; parameters: dose 130 mg/kg, route oral; details: read-out: Drug uptake
[18] = biological target: Adenosine receptor A1 (Homo sapiens) (UniProt P30542); experiment: Binding affinity to human adenosine A1 receptor at 1 uM
[19] = biological target: B2 bradykinin receptor (Homo sapiens) (UniProt P30411); experiment: Binding affinity to human bradykinin B2 receptor at 1 uM
[20] = biological target: Beta-1 adrenergic receptor (Homo sapiens) (UniProt P08588); experiment: Binding affinity to human beta-1 adrenergic receptor at 1 uM
[21] = biological target: C-X-C chemokine receptor type 2 (Homo sapiens) (UniProt P25025); experiment: Binding affinity to human CXCR2 receptor at 1 uM
[22] = biological target: Histamine H2 receptor (Homo sapiens) (UniProt P25021); experiment: Binding affinity to human histamine H2 receptor at 1 uM
Chain of Histamine H2 receptor (Homo sapiens) (P25021 whole entry): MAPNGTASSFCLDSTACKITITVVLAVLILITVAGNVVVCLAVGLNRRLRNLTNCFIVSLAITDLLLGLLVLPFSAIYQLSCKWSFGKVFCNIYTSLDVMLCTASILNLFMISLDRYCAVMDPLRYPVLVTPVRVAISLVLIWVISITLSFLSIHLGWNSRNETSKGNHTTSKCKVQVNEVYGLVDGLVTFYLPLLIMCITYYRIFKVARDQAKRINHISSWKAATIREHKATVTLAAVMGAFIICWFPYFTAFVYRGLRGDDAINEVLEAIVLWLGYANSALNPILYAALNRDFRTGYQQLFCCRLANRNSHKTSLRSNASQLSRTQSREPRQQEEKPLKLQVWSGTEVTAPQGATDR

[23] = biological target: Adenosine receptor A2a (Homo sapiens) (UniProt P29274); experiment: Binding affinity to human adenosine A2A receptor at 1 uM
Chain of Adenosine receptor A2a (Homo sapiens) (P29274 whole entry): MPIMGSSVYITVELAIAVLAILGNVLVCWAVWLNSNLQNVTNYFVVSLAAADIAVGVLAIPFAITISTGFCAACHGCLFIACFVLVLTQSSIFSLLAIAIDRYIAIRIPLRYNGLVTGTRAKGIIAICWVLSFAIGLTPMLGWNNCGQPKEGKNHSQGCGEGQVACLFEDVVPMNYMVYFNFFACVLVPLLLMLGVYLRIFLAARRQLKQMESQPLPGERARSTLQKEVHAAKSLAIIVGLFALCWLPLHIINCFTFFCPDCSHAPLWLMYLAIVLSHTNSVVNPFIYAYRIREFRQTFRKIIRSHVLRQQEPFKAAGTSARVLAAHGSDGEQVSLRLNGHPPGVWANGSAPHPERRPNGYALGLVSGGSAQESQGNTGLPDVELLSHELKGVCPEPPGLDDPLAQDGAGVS

[24] = biological target: Muscarinic acetylcholine receptor M2 (Homo sapiens) (UniProt P08172); experiment: Binding affinity to human muscarinic M2 receptor at 1 uM
Chain of Muscarinic acetylcholine receptor M2 (Homo sapiens) (P08172 whole entry): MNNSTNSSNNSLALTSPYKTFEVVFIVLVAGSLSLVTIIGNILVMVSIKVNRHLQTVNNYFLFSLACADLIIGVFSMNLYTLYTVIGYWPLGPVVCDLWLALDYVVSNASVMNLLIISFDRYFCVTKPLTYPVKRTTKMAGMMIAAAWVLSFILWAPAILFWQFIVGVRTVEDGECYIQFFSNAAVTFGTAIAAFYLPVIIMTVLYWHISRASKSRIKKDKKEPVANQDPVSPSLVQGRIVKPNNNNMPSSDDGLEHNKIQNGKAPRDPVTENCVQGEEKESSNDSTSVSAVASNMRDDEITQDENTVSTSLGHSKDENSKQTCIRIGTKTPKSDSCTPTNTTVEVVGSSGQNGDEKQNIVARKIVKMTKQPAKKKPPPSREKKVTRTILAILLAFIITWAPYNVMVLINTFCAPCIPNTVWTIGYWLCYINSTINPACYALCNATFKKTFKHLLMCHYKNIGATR

[25] = Binding affinity to central benzodiazepine receptor at 1 uM
[26] = biological target: Muscarinic acetylcholine receptor M1 (Homo sapiens) (UniProt P11229); experiment: Binding affinity to human muscarinic M1 receptor at 1 uM
Chain of Muscarinic acetylcholine receptor M1 (Homo sapiens) (P11229 whole entry): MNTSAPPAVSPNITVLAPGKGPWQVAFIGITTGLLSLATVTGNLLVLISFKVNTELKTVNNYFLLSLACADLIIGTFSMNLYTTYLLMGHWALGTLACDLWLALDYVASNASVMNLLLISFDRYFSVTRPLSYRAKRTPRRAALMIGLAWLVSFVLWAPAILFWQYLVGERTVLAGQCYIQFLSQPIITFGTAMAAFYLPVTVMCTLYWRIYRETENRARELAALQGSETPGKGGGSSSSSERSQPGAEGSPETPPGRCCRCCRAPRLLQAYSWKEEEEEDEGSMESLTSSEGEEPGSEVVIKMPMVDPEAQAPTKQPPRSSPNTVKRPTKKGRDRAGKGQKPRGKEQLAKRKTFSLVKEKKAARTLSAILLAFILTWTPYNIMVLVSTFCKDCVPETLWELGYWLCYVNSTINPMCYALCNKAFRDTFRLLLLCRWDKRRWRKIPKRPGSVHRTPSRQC

[27] = biological target: Substance-K receptor (Homo sapiens) (UniProt P21452); experiment: Binding affinity to human NK2 receptor at 1 uM
[28] = Binding affinity to adrenergic alpha1 receptor at 1 uM
[29] = biological target: Alpha-2A adrenergic receptor (Homo sapiens) (UniProt P08913); experiment: Binding affinity to adrenergic alpha2 receptor at 1 uM
[30] = biological target: D(2) dopamine receptor (Homo sapiens) (UniProt P14416); experiment: Binding affinity to human dopamine D2S receptor at 1 uM
[31] = Drug level in rat blood at 130 mg/kg, po after 3 hrs; format: ADME, organism-based; parameters: dose 130 mg/kg, route oral; details: read-out: Drug uptake
[32] = biological target: Histamine H1 receptor (Homo sapiens) (UniProt P35367); experiment: Binding affinity to human histamine H1 receptor at 1 uM
[33] = biological target: D(1A) dopamine receptor (Homo sapiens) (UniProt P21728); experiment: Binding affinity to human dopamine D1 receptor at 1 uM
Chain of D(1A) dopamine receptor (Homo sapiens) (P21728 whole entry): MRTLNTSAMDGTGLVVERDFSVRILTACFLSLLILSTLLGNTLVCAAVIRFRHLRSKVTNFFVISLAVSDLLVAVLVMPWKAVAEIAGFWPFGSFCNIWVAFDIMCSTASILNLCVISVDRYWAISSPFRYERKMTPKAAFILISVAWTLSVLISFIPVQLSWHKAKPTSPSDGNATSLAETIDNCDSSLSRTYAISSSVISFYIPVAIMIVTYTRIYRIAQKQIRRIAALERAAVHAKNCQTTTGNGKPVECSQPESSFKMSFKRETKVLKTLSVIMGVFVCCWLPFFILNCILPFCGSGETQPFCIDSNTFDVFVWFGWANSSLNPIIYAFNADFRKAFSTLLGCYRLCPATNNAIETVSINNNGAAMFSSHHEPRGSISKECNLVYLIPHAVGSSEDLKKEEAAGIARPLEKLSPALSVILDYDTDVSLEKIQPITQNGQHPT

Rattus norvegicus [34] = experiment: Induction of hypothermia in rat at 130 mg/kg, po after 5 hrs; format: organism-based; parameters: dose 130 mg/kg, route oral; details: in vivo
[35] = biological target: Muscarinic acetylcholine receptor M3 (Homo sapiens) (UniProt P20309); experiment: Binding affinity to human muscarinic M3 receptor at 1 uM
Chain of Muscarinic acetylcholine receptor M3 (Homo sapiens) (P20309 whole entry, looked up): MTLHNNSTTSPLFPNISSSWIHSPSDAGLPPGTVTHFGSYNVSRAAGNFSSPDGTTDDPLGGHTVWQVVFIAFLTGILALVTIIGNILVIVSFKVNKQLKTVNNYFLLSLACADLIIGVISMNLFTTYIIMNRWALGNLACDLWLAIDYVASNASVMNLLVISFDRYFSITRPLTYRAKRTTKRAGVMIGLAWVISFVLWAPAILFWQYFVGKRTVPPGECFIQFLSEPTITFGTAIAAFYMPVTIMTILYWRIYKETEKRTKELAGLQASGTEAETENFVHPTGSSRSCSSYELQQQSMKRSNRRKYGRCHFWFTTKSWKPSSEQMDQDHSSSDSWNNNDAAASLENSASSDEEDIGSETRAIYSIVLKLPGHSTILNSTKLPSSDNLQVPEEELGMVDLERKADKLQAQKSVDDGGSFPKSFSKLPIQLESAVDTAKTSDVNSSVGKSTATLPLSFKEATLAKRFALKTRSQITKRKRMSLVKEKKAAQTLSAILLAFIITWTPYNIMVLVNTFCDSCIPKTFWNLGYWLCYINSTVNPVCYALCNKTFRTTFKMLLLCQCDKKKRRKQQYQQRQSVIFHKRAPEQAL

[36] = biological target: Melanocortin receptor 4 (Homo sapiens) (UniProt P32245); experiment: Binding affinity to human MC4 receptor at 1 uM
[37] = biological target: Endothelin-1 receptor (Homo sapiens) (UniProt P25101); experiment: Binding affinity to human ETA receptor at 1 uM
Chain of Endothelin-1 receptor (Homo sapiens) (P25101 whole entry): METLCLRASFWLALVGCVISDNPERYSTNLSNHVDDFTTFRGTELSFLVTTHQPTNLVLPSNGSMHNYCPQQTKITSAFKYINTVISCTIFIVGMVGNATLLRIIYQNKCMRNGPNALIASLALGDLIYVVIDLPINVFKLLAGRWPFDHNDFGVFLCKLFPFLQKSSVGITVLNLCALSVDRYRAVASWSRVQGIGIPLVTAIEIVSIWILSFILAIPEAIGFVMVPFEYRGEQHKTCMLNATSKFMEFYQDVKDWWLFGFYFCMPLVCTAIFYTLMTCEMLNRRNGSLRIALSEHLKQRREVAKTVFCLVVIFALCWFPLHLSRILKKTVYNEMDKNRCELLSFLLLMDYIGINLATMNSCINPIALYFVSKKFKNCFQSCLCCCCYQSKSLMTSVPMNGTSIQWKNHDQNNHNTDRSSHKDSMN

Cytochrome P450 2D6 = Cytochrome P450 2D6 (Homo sapiens, UniProt P10635); experiment: Inhibition of CYP2D6; format: ADME
Chain of Cytochrome P450 2D6 (P10635 whole entry): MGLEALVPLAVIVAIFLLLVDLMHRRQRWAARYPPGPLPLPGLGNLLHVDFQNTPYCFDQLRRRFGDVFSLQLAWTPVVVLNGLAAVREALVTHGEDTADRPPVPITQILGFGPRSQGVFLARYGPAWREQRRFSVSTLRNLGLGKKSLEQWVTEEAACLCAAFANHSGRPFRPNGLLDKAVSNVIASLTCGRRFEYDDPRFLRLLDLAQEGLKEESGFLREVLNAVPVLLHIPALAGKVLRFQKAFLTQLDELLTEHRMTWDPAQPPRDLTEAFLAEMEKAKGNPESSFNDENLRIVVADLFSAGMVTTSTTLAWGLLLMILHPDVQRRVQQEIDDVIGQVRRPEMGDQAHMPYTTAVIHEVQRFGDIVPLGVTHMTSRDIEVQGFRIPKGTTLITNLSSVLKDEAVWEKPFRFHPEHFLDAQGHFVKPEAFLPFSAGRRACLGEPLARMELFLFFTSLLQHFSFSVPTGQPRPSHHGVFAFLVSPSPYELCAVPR

Rattus norvegicus [38] = experiment: Antihyperalgesic activity in po dosed complete Freund's adjuvant rat model of inflammatory pain assessed as reduction of hypersensitivity administered as single dose; format: functional
[39] = Ratio of drug level in brain to blood in mouse; format: ADME, tissue-based
Cytochrome P450 2C19 = Cytochrome P450 2C19 (Homo sapiens, UniProt P33261); experiment: Inhibition of CYP2C19; format: ADME
[40] = Solubility in simulated intestinal fluid at pH 5; format: physicochemical
[41] = Dissociation constant, pKa of the compound; format: physicochemical
Cytochrome P450 2C9 = Cytochrome P450 2C9 (Homo sapiens, UniProt P11712); experiment: Inhibition of CYP2C9; format: ADME
Rattus norvegicus [42] = experiment: Analgesic activity in rat joint model of chronic pain at 1 to 10 mg/kg, po BID for 5 days; format: functional, organism-based
Cannabinoid receptor 1 [43] = biological target: T1, Cannabinoid receptor 1; experiment: Agonist activity at human recombinant cannabinoid CB1 receptor expressed in MMY23 Saccharomyces cerevisiae assessed as degradation of FDGlu to fluorescein after 24 hrs by spectrofluorimetry relative to HU210; format: functional
Cytochrome P450 1A2 = Cytochrome P450 1A2 (Homo sapiens, UniProt P05177); experiment: Inhibition of CYP1A2; format: ADME
[44] = Intrinsic clearance in human liver microsomes; format: ADME, Microsome
[45] = Intrinsic clearance in rat liver microsomes; format: ADME, Microsome
Cytochrome P450 3A4 = Cytochrome P450 3A4 (Homo sapiens, UniProt P08684); experiment: Inhibition of CYP3A4; format: ADME

Cc1c[nH]c2c(Nc3ccccc3OC(C)C)ncc(C(=O)N3CCOCC3)c12
EC50 (Cannabinoid receptor 1 [1]): > 30 µM
Ratio EC50 (Homo sapiens): > 100
EC50 (Cannabinoid receptor 2 [2]): 0.188 µM
Efficacy (Cannabinoid receptor 2 [3]): 73%
Activity (Cannabinoid receptor 1 [4]): inactive

COc1ccccc1Nc1ncc(C(=O)N2CCOCC2)c2c(C)c[nH]c12
EC50 (Cannabinoid receptor 1 [1]): > 10 µM
Ratio EC50 (Homo sapiens): > 100
EC50 (Cannabinoid receptor 2 [2]): 0.349 µM
Efficacy (Cannabinoid receptor 2 [3]): 72%
Activity (Cannabinoid receptor 1 [4]): inactive

Cc1c[nH]c2c(Nc3cccc(Cl)c3)ncc(C(=O)N3CCCCCC3)c12
EC50 (Cannabinoid receptor 1 [1]): > 30 µM
EC50 (Cannabinoid receptor 2 [2]): 0.107 µM
Efficacy (Cannabinoid receptor 2 [3]): 76%

Cc1c[nH]c2c(Nc3cccc(C(F)(F)F)c3)ncc(C(=O)N3CCOCC3)c12
EC50 (Cannabinoid receptor 1 [1]): > 30 µM
Ratio EC50 (Homo sapiens): > 100
EC50 (Cannabinoid receptor 2 [2]): 0.015 µM
Efficacy (Cannabinoid receptor 2 [3]): 86%
Activity (Cannabinoid receptor 1 [4]): inactive

CS(=O)(=O)c1ccc(C2=C(c3ccccc3)C(=O)OC2)cc1 [ROFECOXIB]
Activity (Rattus norvegicus [5]): Active
Ratio [6]: 74

Cn1ccc2c(Nc3cccc(Cl)c3)ncc(Br)c21
Efficacy [7]: 59%
Activity (Rattus norvegicus [8]): Non-toxic
Activity [9]: < 10%
Activity [10]: < 10%
Activity [11]: < 10%
Activity [12]: < 10%
Activity [13]: < 10%
Activity [14]: < 10%
EC50 (Cannabinoid receptor 1 [15]): 2.51 µM
Activity [16]: < 10%
concentration at 1 h [17]: 10.9 µM
Activity [18]: < 10%
Activity [19]: < 10%
Activity [20]: < 10%
Activity [21]: < 10%
Activity [22]: < 10%
Activity [23]: < 10%
Activity [24]: < 10%
Activity [25]: < 10%
Activity [26]: < 10%
Activity [27]: < 10%
Activity [28]: < 10%
Activity [29]: 25%
Activity [30]: < 10%
concentration at 3 h [31]: 14.7 µM
Activity [32]: < 10%
Activity [33]: < 10%
Activity (Rattus norvegicus [34]): Toxic
Activity [35]: < 10%
Activity [36]: < 10%
Activity [37]: < 10%

CCCCCCC(C)(C)c1cc(O)c2c(c1)OC(C)(C)[C@@H]1CC=C(CO)C[C@@H]21
EC50 (Cannabinoid receptor 1 [1]): 0.04 µM

CCC(CC)Nc1ncc(C(=O)N2CCOCC2)c2c(C)c[nH]c12
EC50 (Cannabinoid receptor 1 [1]): > 30 µM
EC50 (Cannabinoid receptor 2 [2]): 4.67 µM
Efficacy (Cannabinoid receptor 2 [3]): 59%

Cc1c[nH]c2c(Nc3cccc(Cl)c3)ncc(C(=O)N3CCOCC3)c12
Ratio [6]: 74
IC50 (Cytochrome P450 2D6): 14 µM
ED50 (Rattus norvegicus [38]): 0.12 mg/kg
Kp [39]: < 0.05
IC50 (Cytochrome P450 2C19): 29 µM
EC50 (Cannabinoid receptor 1 [1]): 10 µM
Ratio EC50 (Homo sapiens): 1000
solubility [40]: 160 µg/mL (≈ 431 µM)
pKa [41]: 5.8
EC50 (Cannabinoid receptor 2 [2]): 0.011 µM
IC50 (Cytochrome P450 2C9): 4.7 µM
Activity (Rattus norvegicus [42]): inactive
Efficacy (Cannabinoid receptor 1 [43]): 74%
IC50 (Cytochrome P450 1A2): 28 µM
Efficacy (Cannabinoid receptor 2 [3]): 82%
CLint scaled [44]: 1.6 mL/min/kg
CLint scaled [45]: 1.4 mL/min/kg
IC50 (Cytochrome P450 3A4): 48 µM

Cc1c[nH]c2c(Nc3cccc(Br)c3)ncc(C(=O)N3CCOCC3)c12
EC50 (Cannabinoid receptor 1 [1]): 6.3 µM
EC50 (Cannabinoid receptor 2 [2]): 0.01 µM
Efficacy (Cannabinoid receptor 1 [43]): 43%
Efficacy (Cannabinoid receptor 2 [3]): 78%

O=C(NCC1CCOCC1)c1cnc(Nc2ccc(Cl)cc2Cl)nc1C(F)(F)F [GW842166X]
EC50 (Cannabinoid receptor 1 [1]): > 30 µM
solubility [40]: 10 µg/mL (≈ 22.3 µM)
